Measured values: patent publication US20060058286A1, “Methods of treating HIV infection” (priority 2004, published 2006)

Columns and labels:
HIV-1 NL4-3 [1] = experiment: Two-drug combination study with Compound 1 (combination indices); format: cell-based; conditions: for Combination Indices at 50% HIV Inhibition (Confidence Interval) / Combination Indices at 75% HIV Inhibition (Confidence Interval) / Combination Indices at 90% HIV Inhibition (Confidence Interval): 95% CI in parentheses; for Overall Result: overall antiviral effect of the two-drug combination with Compound 1, all ratios and effective levels
Procedure: (§1) Virus and cell lines. The T-cell line, MT-2 was obtained through the AIDS Research and Reference Reagent Program, NIAID and was contributed by Dr. D. Richman. The cell line was cultured in RPMI 1640 medium supplemented with 10% fetal bovine serum, 2 mM L-glutamine and sub-cultured twice a week. The NL4-3 strain of HIV-1 was obtained from the AIDS Research and Reference Reagent Program. Both virus stocks were amplified and titered in MT-2 cells using a virus infectivity assay.
(§2) Drug Susceptibility and Cytotoxicity Assays. For drug susceptibility assays, MT-2 cells were infected with HIV-1 NL4-3 at an MOI of 0.001, and seeded into 96-well microtiter plates (2.5×10^5 cells/ml) containing serial dilutions of test compounds. […] Each drug ratio consisted of an array of 3-fold serial dilutions, and was performed in quadruplicate. The plates were incubated at 37° C./5% CO2. The MT-2 cells infected with HIV-1 NL4-3 were incubated for 5 days. On day-five post-infection, 20 μl from each well was harvested and quantitated by a reverse transcriptase (RT) assay or an MTS assay. Cytotoxicity assays were performed using uninfected cells, exposed to the same drug combinations, and incubated for five days. Cell viability was determined by an XTT assay. The CC50 values were calculated by using the exponential form of the median effect equation as mentioned below for calculation of EC50.
Analysis of Drug Combination Effects. For determination of CI values, drugs were diluted in a fixed ratio and multiple ratios were analyzed. The drug serial dilutions spanned a range of concentrations near the EC50 value of each compound, so that equivalent antiviral activities could be compared. Concentration-response curves were estimated for each individual drug and every combination using the median-effect equation. The equation was fit using a nonlinear regression routine (Proc Nlin) in PC SAS version 8.01 (SAS Institute Inc., SAS Version 8.01, Cary, N.C.: SAS Institute Inc., 1990).
(§3) In this equation, Fa stands for “fraction affected,” and represents the fraction of the viral load that has been inactivated.
To assess antiviral effects of different drug combination treatments, combination indices (CIs) were calculated according to Chou and Rideout. The combination index was computed as CI=[D]1/[Dm]1+[D]2/[Dm]2
In this equation [Dm]1 and [Dm]2 are the concentrations of drugs that would individually produce a specific level of effect, while [D]1 and [D]2 are the concentrations of drugs in combination that would produce the same level of effect.
Theoretically, additivity is implied if the CI is equal to one, synergy if the CI is less than one, and antagonism if the CI is greater than one. […] At best, we can construct a range that contains the likely values for the CI, given the noise in the data. In this report, these ranges are reported in parentheses next to each point estimate of the CI. […] If the range fell entirely above 1.0, we would infer antagonistic behavior. If the range were to include 1.0, we would infer additivity.

HIV-1 NL4-3 [2] = experiment: microbe, parasite or virus in culture; conditions: Human immunodeficiency virus 1, NL43, MT2, 120 h
Procedure: as §1, §2, §3
In carrying out the combination experiments below, the EC50 for Compound 1 and each comparator compound was determined during the course of each study, and used in the subsequent data analysis.

[3] = combination with Compound 1, EC50 ratio 1:1 (Compound 1:comparator)
[4] = combination with Compound 1, EC50 ratio 1:2.5 (Compound 1:comparator)
[5] = combination with Compound 1, EC50 ratio 2.5:1 (Compound 1:comparator)

Structure (SMILES) | Combination Indices at 50% HIV Inhibition (Confidence Interval) (HIV-1 NL4-3 [1]; [3]) | Combination Indices at 75% HIV Inhibition (Confidence Interval) (HIV-1 NL4-3 [1]; [3]) | Combination Indices at 90% HIV Inhibition (Confidence Interval) (HIV-1 NL4-3 [1]; [3]) | Combination Indices at 50% HIV Inhibition (Confidence Interval) (HIV-1 NL4-3 [1]; [4]) | Combination Indices at 75% HIV Inhibition (Confidence Interval) (HIV-1 NL4-3 [1]; [4]) | Combination Indices at 90% HIV Inhibition (Confidence Interval) (HIV-1 NL4-3 [1]; [4]) | Combination Indices at 50% HIV Inhibition (Confidence Interval) (HIV-1 NL4-3 [1]; [5]) | Combination Indices at 75% HIV Inhibition (Confidence Interval) (HIV-1 NL4-3 [1]; [5]) | Combination Indices at 90% HIV Inhibition (Confidence Interval) (HIV-1 NL4-3 [1]; [5]) | combination effect at the 5:1 and 2:1 molar ratios (HIV-1 NL4-3 [1]; combination with Compound 1, all effective levels) | combination effect at the 12.5:1 molar ratio (HIV-1 NL4-3 [1]; combination with Compound 1, only at the 75% and 90% effective levels) | Overall Result (HIV-1 NL4-3 [1]) | Overall Result (HIV-1 NL4-3 [1]; listed as nelfinavir) | EC50 (HIV-1 NL4-3 [2]) | Overall Result (HIV-1 NL4-3 [1]; listed as efavirenz) | Overall Result (HIV-1 NL4-3 [1]; listed as amprenavir)
Cc1c(O)cccc1C(=O)N[C@@H](CSc1ccccc1)[C@H](O)CN1C[C@H]2CCCC[C@H]2C[C@H]1C(=O)NC(C)(C)C [Nelfinavir, nelfinavir] | 0.55 (0.45, 0.65) | 0.57 (0.42, 0.71) | 0.59 (0.35, 0.83) | 0.41 (0.34, 0.49) | 0.50 (0.38, 0.63) | 0.62 (0.36, 0.87) | 0.82 (0.65, 0.99) | 0.84 (0.60, 1.08) | 0.87 (0.47, 1.27) | synergy | bias toward additivity | Moderately | moderately synergistic | 8 nM | – | –
O=C1Nc2ccc(Cl)cc2[C@@](C#CC2CC2)(C(F)(F)F)O1 [Efavirenz, efavirenz] | 0.57 (0.44, 0.70) | 0.56 (0.38, 0.74) | 0.56 (0.28, 0.84) | 0.49 (0.36, 0.62) | 0.54 (0.34, 0.75) | 0.61 (0.26, 0.97) | 0.60 (0.45, 0.74) | 0.51 (0.33, 0.68) | 0.43 (0.20, 0.67) | – | – | Synergistic | – | 1.5 nM | strong synergistic effects | –
CC(C)CN(C[C@@H](O)[C@H](Cc1ccccc1)NC(=O)O[C@H]1CCOC1)S(=O)(=O)c1ccc(N)cc1 [Amprenavir, amprenavir] | 0.37 (0.24, 0.49) | 0.53 (0.28, 0.78) | 0.95 (0.24, 1.67) | 0.37 (0.27, 0.48) | 0.56 (0.33, 0.78) | 1.05 (0.38, 1.71) | 1.17 (0.91, 1.43) | 0.87 (0.60, 1.13) | 0.74 (0.38, 1.10) | – | – | Additive- | – | 42 nM | – | additive to synergistic
CON(Cc1ccc(F)cc1)C(=O)/C=C(\O)C(=O)O [Compound 1, (Z)-3-[(4-Fluoro-benzyl)-methoxy-carbamoyl]-2-hydroxy-acrylic acid] | – | – | – | – | – | – | – | – | – | – | – | synergistic or additive-synergistic | – | 155 nM | – | –
